Test results: patent publication US20240124445A1, “BENZENE RING COMPOUND AND USE THEREOF” (NANJING SHIJIANG MEDICINE TECHNOLOGY CO., LTD, priority 2020, published 2024)
Read-outs that look alike come from different tables or passages of the source.

Columns and labels:
G-401 = test: Cell viability (CellTiter-Glo) of G-401; type: cell-based; conditions: Homo sapiens
Experimental: (§1) Cell viability was detected using the Promega CellTiter-Glo kit, the kit reflected cell viability by directly measuring intracellular ATP content. Different cancer cells was cultured in medium, the 50% inhibiting concentration (IC50) of compound AB24852 on cancer cells was determined using Promega CellTiter-Glo kit. The name, source and culture conditions of each tumor cell line were as follows:
Cell line G-401 (ATCC, No. CRL-1441) was cultured in 10% fetal bovine serum-containing McCoy's 5a medium (+P/S).
(§2) Cell viability was detected using the Promega CellTiter-Glo kit, the kit reflected cell viability by directly measuring intracellular ATP content. In the experiment, the IC50 value of different compounds on different tumor cell lines was detected to determine cell lines that were sensitive or insensitive to different compounds.
(§3) Tumor cells were cultured in 10% FBS-containing medium (+p/s), and incubated for 3 h or the following day, then the gradient diluted compound was added. After 3 days of culture, the relevant IC50 (50% inhibiting concentration) was measured. The name, source and culture conditions of each tumor cell line were as follows: […]

786-O = test: Cell viability (CellTiter-Glo) of 786-O; type: cell-based; conditions: Homo sapiens, 786-0, 72 h, 3 days of culture
Experimental: as §2
(§4) Tumor cells were cultured in 10% FBS-containing medium (+p/s), and incubated for 3 h or the following day, then the gradient diluted compound was added. After 3 days of culture, the relevant IC50 (50% inhibiting concentration) was measured. The name, source and culture conditions of each tumor cell line were as follows:
Cell line 786-0 (ATCC, No. CRL-1932) was cultured in 10% fetal bovine serum-containing RPMI1640 medium (+P/S).

NCI-H82 cell = test: Cell viability (Promega CellTiter-Glo) of NCI-H82 cell; type: cell-based; conditions: Homo sapiens
Experimental: Cell viability was detected using the Promega CellTiter-Glo kit, the kit reflected cell viability by directly measuring intracellular ATP content. Small cell lung cancer cell NCI-H82 (ATCC, No. HTB-175) was cultured in 10% fetal bovine serum-containing RPMI1640 medium (+P/S).
Cell viability was detected using the Promega CellTiter-Glo kit, the kit reflected cell viability by directly measuring intracellular ATP content.
Daoy cell was cultured in 10% fetal bovine serum-containing DMEM medium (+P/S), and NCI-H82 cell was cultured in 10% fetal bovine serum-containing RPMI1640 medium (+P/S).
as §2, §4
Cell line NCI-H82 (ATCC, No. HTB-175) was cultured in 10% fetal bovine serum-containing RPMI1640 medium (+P/S).

SF-126 = test: Cell viability (CellTiter-Glo) of SF-126; type: cell-based; conditions: Homo sapiens, 72 h; SF-126, 3 days of culture
Experimental: as §2, §3

MDA-MB-453 = test: Cell viability (CellTiter-Glo) of MDA-MB-453; type: cell-based; conditions: Homo sapiens
Experimental: as §1
Cell line MDA-MB-453 (ATCC, No. HTB-131) was cultured in 10% fetal bovine serum-containing Leibovitz's L-15 medium (+P/S).
as §2, §3

CFPAC-1 = test: Cell viability (CellTiter-Glo) of CFPAC-1; type: cell-based; conditions: Homo sapiens, 72 h; CFPAC-1, 3 days of culture
Experimental: as §2, §4
Cell line CFPAC-1 (ATCC, No. CRL-1918) was cultured in 10% fetal bovine serum-containing IMDM medium (+P/S).

GB-1 = test: Cell viability (CellTiter-Glo) of GB-1; type: cell-based; conditions: Homo sapiens, 72 h; GB-1, 3 days of culture
Experimental: as §2, §4
Cell line GB-1 (JCRB, No. IF050489) was cultured in 10% fetal bovine serum-containing DMEM medium (+P/S).

[1] = Stability in human liver microsome; type: in vitro ADME; conditions: liver microsomes, pH 7.4, 1.5 μM drug solution, NADPH, 37° C., read-out: Human T1/2
Experimental: Vortexing for 10 min, the sample was centrifuged with 5594×g for 15 min in centrifuger (Thermo Multifuge×3R). • 10) taking 50 μL supernatant from the centrifuged sample, transferred to 96 well sample plate contain 50 μL water, mixed, and the sample was analyzed using LC-MS/MS.

SW48 = test: Cell viability (CellTiter-Glo) of SW48; type: cell-based; conditions: Homo sapiens
Experimental: as §1
Cell line SW48 (ATCC, No. CCL-231) was cultured in 10% fetal bovine serum-containing Leibovitz's L-15 medium (+P/S).
as §2, §3

NCI-H1048 = test: Cell viability (CellTiter-Glo) of NCI-H1048; type: cell-based; conditions: Homo sapiens; NCI-H1048, lung cancer
Experimental: as §1
Cell line NCI-H1048 (ATCC, No. CRL-5853) was cultured in 5% fetal bovine serum-containing HITES medium (+P/S).

OCI-AML-4 = test: Cell viability (CellTiter-Glo) of OCI-AML-4; type: cell-based; conditions: OCI-AML-4, leukemia
Experimental: as §1
Cell line OCI-AML-4 (DSMZ, No. ACC-729) was cultured in alpha-MEM medium containing 20% fetal bovine serum and 20% volume fraction of 5637 cell line adjusted medium (+P/S).

SNU-398 = test: Cell viability (CellTiter-Glo) of SNU-398; type: cell-based; conditions: Homo sapiens; SNU-398, liver cancer
Experimental: as §1
Cell line SNU-398 (ATCC, number CRL-2233) was cultured in 10% fetal bovine serum-containing RPMI1640 medium (+P/S).

22RV1 = test: Cell viability (CellTiter-Glo) of 22RV1; type: cell-based; conditions: Homo sapiens; 22RV1, prostatic cancer
Experimental: as §1
Cell line 22RV1 (ATCC, No. CRL-2505) was cultured in 10% fetal bovine serum-containing RPMI1640 medium (+P/S).

A-375 = test: Cell viability (CellTiter-Glo) of A-375; type: cell-based; conditions: Homo sapiens; A-375, melanoma
Experimental: as §1
Cell line A-375 (ATCC, No. CRL-1619) was cultured in 10% fetal bovine serum-containing DMEM medium (+P/S).

SU-DHL-2 = test: Cell viability (CellTiter-Glo) of SU-DHL-2; type: cell-based; conditions: Homo sapiens; SU-DHL-2, lymphoma
Experimental: as §1
Cell line SU-DHL-2 (ATCC, No. CRL-2956) was cultured in 10% fetal bovine serum-containing RPMI1640 medium (+P/S).

MIA PaCa-2 = test: Cell viability (CellTiter-Glo) of MIA PaCa-2; type: cell-based; conditions: Homo sapiens; MIA PaCa-2, pancreatic cancer
Experimental: as §1
Cell line MIA PaCa-2 (ATCC, No. CRL-1420) was cultured in 10% fetal bovine serum-containing DMEM medium (+P/S).

[2] = 72 h, G-401, 3 days of culture, Table 5, read-out: IC50 G-401
[3] = 72 h, NCI-H82, 3 days of culture, Table 5, read-out: IC50 NCI-H82
[4] = NCI-H82 cell, Table 1, read-out: IC50
[5] = 72 h, MDA-MB-453, 3 days of culture, Table 5, read-out: IC50 MDA-MB-453
[6] = 72 h, SW48, 3 days of culture, Table 5, read-out: IC50 SW48

Compound: O=C(C[n+]1ccc(NCc2ccccc2)cc1)c1cccc(Cl)c1 [AB24805A]
- IC50 (G-401; [2]): 420 nM
- IC50 (786-O): 46500 nM
- IC50 (NCI-H82 cell; [3]): 370 nM
- IC50 (NCI-H82 cell; [4]): 370 nM
- IC50 (SF-126): 3180 nM
- IC50 (MDA-MB-453; [5]): 210 nM
- IC50 (CFPAC-1): 35700 nM
- IC50 (GB-1): 3430 nM
- half-life at 1 µM [1]: 3.71 h
- IC50 (SW48; [6]): 760 nM

Compound: O=C(C[n+]1ccc(NCc2ccccc2)cc1)c1ccc(Br)cc1 [AB24808A]
- IC50 (G-401; [2]): 910 nM
- IC50 (786-O): 44000 nM
- IC50 (NCI-H82 cell; [3]): 610 nM
- IC50 (NCI-H82 cell; [4]): 610 nM
- IC50 (SF-126): 2980 nM
- IC50 (MDA-MB-453; [5]): 360 nM
- IC50 (CFPAC-1): 20000 nM
- IC50 (GB-1): 5270 nM
- half-life at 1 µM [1]: 5.69 h
- IC50 (SW48; [6]): 1780 nM

Compound: O=C(C[n+]1ccc(NCc2ccccc2)cc1)c1ccc(C(F)(F)F)cc1 [AB24809A]
- IC50 (G-401; [2]): 3030 nM
- IC50 (786-O): > 50000 nM
- IC50 (NCI-H82 cell; [3]): 2430 nM
- IC50 (NCI-H82 cell; [4]): 2430 nM
- IC50 (SF-126): 37500 nM
- IC50 (MDA-MB-453; [5]): 1770 nM
- IC50 (CFPAC-1): > 50000 nM
- IC50 (GB-1): > 50000 nM
- half-life at 1 µM [1]: 6.64 h
- IC50 (SW48; [6]): 7640 nM

Compound: O=C(C[n+]1ccc(NCc2ccccc2)cc1)c1ccc(OC(F)(F)F)cc1 [AB24810A]
- IC50 (G-401; [2]): 1950 nM
- IC50 (786-O): > 50000 nM
- IC50 (NCI-H82 cell; [3]): 1340 nM
- IC50 (NCI-H82 cell; [4]): 1340 nM
- IC50 (SF-126): 13100 nM
- IC50 (MDA-MB-453; [5]): 2690 nM
- IC50 (CFPAC-1): 36000 nM
- IC50 (GB-1): 24500 nM
- half-life at 1 µM [1]: 65.2 h
- IC50 (SW48; [6]): 2130 nM

Compound: O=C(C[n+]1ccc2[nH]cc(Cc3ccccc3)c2c1)c1ccc(Cl)cc1 [AB24833A]
- IC50 (G-401; [2]): 5300 nM
- IC50 (786-O): 45400 nM
- IC50 (NCI-H82 cell; NCI-H82): 3380 nM
- IC50 (NCI-H82 cell; NCI-H82, 72 h, read-out: IC50 NCI-H82): 3380 nM
- IC50 (SF-126): 21600 nM
- IC50 (MDA-MB-453; [5]): 5300 nM
- IC50 (CFPAC-1): 24800 nM
- IC50 (GB-1): 22000 nM
- IC50 (SW48; [6]): 8160 nM

Compound: O=C1c2ccc(Cl)cc2CCC1[n+]1ccc(NCc2ccccc2)cc1 (stereo not shown) [AB24841A]
- IC50 (G-401; [2]): 630 nM
- IC50 (786-O): > 50000 nM
- IC50 (NCI-H82 cell; [3]): 590 nM
- IC50 (NCI-H82 cell; [4]): 590 nM
- IC50 (SF-126): 10800 nM
- IC50 (MDA-MB-453; [5]): 620 nM
- IC50 (CFPAC-1): 35700 nM
- IC50 (GB-1): 16400 nM
- half-life at 1 µM [1]: 20.4 h
- IC50 (SW48; [6]): 800 nM

Compound: Cc1ccc(C(=O)C[n+]2ccc(NCc3ccccc3)cc2)cc1 [AB24845A]
- IC50 (G-401; [2]): 300 nM
- IC50 (786-O): 38600 nM
- IC50 (NCI-H82 cell; [3]): 120 nM
- IC50 (NCI-H82 cell; [4]): 120 nM
- IC50 (SF-126): 2280 nM
- IC50 (MDA-MB-453; [5]): 190 nM
- IC50 (CFPAC-1): 29400 nM
- IC50 (GB-1): 4370 nM
- IC50 (SW48; [6]): 140 nM

Compound: Cc1ccc(C(=O)C[n+]2ccc(NCc3ccccc3)nc2)cc1 [AB24846]
- IC50 (G-401; [2]): 690 nM
- IC50 (786-O): 47300 nM
- IC50 (NCI-H82 cell; [3]): 510 nM
- IC50 (NCI-H82 cell; [4]): 510 nM
- IC50 (SF-126): 3610 nM
- IC50 (MDA-MB-453; [5]): 820 nM
- IC50 (CFPAC-1): 36400 nM
- IC50 (GB-1): 12300 nM
- IC50 (SW48; [6]): 2050 nM

Compound: O=C(C[n+]1ccc(NCc2ccccc2)cc1)c1cccc([N+](=O)[O-])c1 [AB24852]
- IC50 (NCI-H1048): 1100 nM
- IC50 (G-401; [2]): 1020 nM
- IC50 (G-401; G-401, renal carcinoma, Table 2, read-out: IC50): 1000 nM
- IC50 (786-O): > 50000 nM
- IC50 (NCI-H82 cell; [3]): 1460 nM
- IC50 (NCI-H82 cell; [4]): 1460 nM
- IC50 (OCI-AML-4): 800 nM
- IC50 (SNU-398): 1700 nM
- IC50 (22RV1): 2300 nM
- IC50 (A-375): 1300 nM
- IC50 (SF-126): > 50000 nM
- IC50 (SU-DHL-2): 300 nM
- IC50 (MDA-MB-453; [5]): 220 nM
- IC50 (MDA-MB-453; MDA-MB-453, breast cancer, Table 2, read-out: IC50): 200 nM
- IC50 (CFPAC-1): > 50000 nM
- IC50 (GB-1): > 50000 nM
- half-life at 1 µM [1]: 1.78 h
- IC50 (MIA PaCa-2): 700 nM
- IC50 (SW48; [6]): 720 nM
- IC50 (SW48; SW48, intestine cancer, Table 2, read-out: IC50): 700 nM
